Measured values: ChEMBL document CHEMBL4007490, “New hydrazine and hydrazide quinoxaline 1,4-di-N-oxide derivatives: In silico ADMET, antiplasmodial and antileishmanial activity” (Bioorg Med Chem Lett, 2017)

Legend:
[1] = system: Plasmodium falciparum; test: Antiplasmodial activity against chloroquine-sensitive/sulfadoxine-resistant Plasmodium falciparum 3D7 by [3H]-hypoxanthine incorporation assay; type: functional
[2] = system: Plasmodium falciparum; test: Antiplasmodial activity against chloroquine/cycloguanil-resistant Plasmodium falciparum FCR3 by [3H]-hypoxanthine incorporation assay; type: functional; conditions: FCR-3/Gambia
[3] = Selectivity index, ratio of CC50 for human HepG2A16 cells to IC50 for chloroquine/cycloguanil-resistant Plasmodium falciparum FCR3; type: toxicity; conditions: read-out: Ratio CC50/IC50
[4] = system: Leishmania infantum; test: Antileishmanial activity against axenic amastigote form of Leishmania infantum MHOM/MA/67/ITMAP-263 assessed as parasite growth inhibition after 72 hrs by MTT assay; type: functional; conditions: MHOM/MA/67/ITMAP-263, 72 h
[5] = Selectivity index, ratio of CC50 for human HepG2A16 cells to IC50 for axenic amastigote form of Leishmania infantum MHOM/MA/67/ITMAP-263; type: toxicity; conditions: read-out: Ratio CC50/IC50
[6] = Cytotoxicity against human HepG2A16 cells after 48 hrs by MTT assay; type: cell-based

Cc1c(/C=N/NC(=O)c2ccncc2)[n+]([O-])c2ccccc2[n+]1[O-]
IC50 [1]: > 100 µM | IC50 [2]: > 100 µM | selectivity ratio [3]: < 0.9 | IC50 [4]: > 100 µM | selectivity ratio [5]: < 0.9 | CC50 at 48 h [6]: 90.9 µM

COc1ccc(C(=O)N/N=C/c2c(C)[n+]([O-])c3ccccc3[n+]2[O-])cc1
IC50 [1]: 27.8 µM | IC50 [2]: 30 µM | selectivity ratio [3]: 2.22 | IC50 [4]: > 100 µM | selectivity ratio [5]: < 0.66 | CC50 at 48 h [6]: 66.6 µM

Cc1c(/C=N/Nc2ccc(C(=O)O)cc2)[n+]([O-])c2ccccc2[n+]1[O-]
IC50 [1]: > 100 µM | IC50 [2]: > 100 µM | selectivity ratio [3]: < 3.72 | IC50 [4]: > 100 µM | selectivity ratio [5]: < 3.72 | CC50 at 48 h [6]: 373 µM

CC(=O)N/N=C/c1c(C)[n+]([O-])c2ccccc2[n+]1[O-]
IC50 [1]: > 100 µM | IC50 [2]: > 100 µM | selectivity ratio [3]: < 0.87 | IC50 [4]: > 100 µM | selectivity ratio [5]: < 0.87 | CC50 at 48 h [6]: 87.2 µM

Cc1c(C)[n+]([O-])c2cc(Cl)ccc2[n+]1[O-]
IC50 [1]: > 100 µM | IC50 [2]: > 100 µM | selectivity ratio [3]: < 2.28 | IC50 [4]: > 100 µM | selectivity ratio [5]: < 2.28 | CC50 at 48 h [6]: 228 µM

Cc1c(/C=N/NC(=O)c2ccccc2)[n+]([O-])c2ccccc2[n+]1[O-]
IC50 [1]: 55.7 µM | IC50 [2]: 36.5 µM | selectivity ratio [3]: 1.11 | IC50 [4]: 59.1 µM | selectivity ratio [5]: 0.68 | CC50 at 48 h [6]: 40.7 µM

Cc1c(C(F)(F)F)[n+]([O-])c2ccccc2[n+]1[O-]
IC50 [1]: 7.9 µM | IC50 [2]: 4.2 µM | selectivity ratio [3]: 0.42 | IC50 [4]: 30.5 µM | selectivity ratio [5]: 0.05 | CC50 at 48 h [6]: 1.8 µM

COc1ccc2c(c1)[n+]([O-])c(/C=N/Nc1c(Cl)cc(Cl)cc1Cl)c(C)[n+]2[O-]
IC50 [1]: > 100 µM | IC50 [2]: > 100 µM | selectivity ratio [3]: < 2.09 | IC50 [4]: > 100 µM | selectivity ratio [5]: < 2.08 | CC50 at 48 h [6]: 209 µM

Cc1c(/C=N/Nc2cccc(Cl)c2)[n+]([O-])c2ccccc2[n+]1[O-]
IC50 [1]: > 100 µM | IC50 [2]: > 100 µM | selectivity ratio [3]: < 0.47 | IC50 [4]: > 100 µM | selectivity ratio [5]: < 0.47 | CC50 at 48 h [6]: 47.3 µM

Cc1c(/C=N/Nc2ccnc3cc(Cl)ccc23)[n+]([O-])c2cc(Cl)ccc2[n+]1[O-]
IC50 [1]: 0.24 µM | IC50 [2]: 2.8 µM | selectivity ratio [3]: > 86.1 | IC50 [4]: > 100 µM | CC50 at 48 h [6]: > 241 µM

Cc1c(/C=N/NC(=O)c2ccc(Cl)cc2)[n+]([O-])c2ccccc2[n+]1[O-]
IC50 [1]: 54.9 µM | IC50 [2]: 34.8 µM | selectivity ratio [3]: 0.81 | IC50 [4]: 52.3 µM | selectivity ratio [5]: 0.54 | CC50 at 48 h [6]: 28.3 µM

COc1ccc2c(c1)[n+]([O-])c(C)c(C)[n+]2[O-]
IC50 [1]: > 100 µM | IC50 [2]: > 100 µM | selectivity ratio [3]: < 7.44 | IC50 [4]: > 100 µM | selectivity ratio [5]: < 7.44 | CC50 at 48 h [6]: 744 µM

Cc1c(/C=N/Nc2c(Cl)cc(Cl)cc2Cl)[n+]([O-])c2ccccc2[n+]1[O-]
IC50 [1]: > 100 µM | IC50 [2]: > 100 µM | selectivity ratio [3]: < 1.24 | IC50 [4]: > 100 µM | selectivity ratio [5]: < 1.24 | CC50 at 48 h [6]: 124 µM

Cc1c(/C=N/Nc2ccccc2)[n+]([O-])c2ccccc2[n+]1[O-]
IC50 [1]: > 100 µM | IC50 [2]: > 100 µM | selectivity ratio [3]: < 0.35 | IC50 [4]: > 100 µM | selectivity ratio [5]: < 0.35 | CC50 at 48 h [6]: 35.4 µM

Cc1ccc(S(=O)(=O)N/N=C/c2c(C)[n+]([O-])c3ccccc3[n+]2[O-])cc1
IC50 [1]: 85.3 µM | IC50 [2]: > 100 µM | selectivity ratio [3]: < 2.41 | IC50 [4]: 53.4 µM | selectivity ratio [5]: 4.51 | CC50 at 48 h [6]: 241 µM

Cc1c(/C=N/Nc2ccc(Cl)c(Cl)c2)[n+]([O-])c2ccccc2[n+]1[O-]
IC50 [1]: 76.7 µM | IC50 [2]: 87.1 µM | selectivity ratio [3]: 6.32 | IC50 [4]: > 100 µM | selectivity ratio [5]: < 5.5 | CC50 at 48 h [6]: 551 µM

COc1ccc2c(c1)[n+]([O-])c(/C=N/Nc1ccnc3cc(Cl)ccc13)c(C)[n+]2[O-]
IC50 [1]: 1.4 µM | IC50 [2]: 2.56 µM | selectivity ratio [3]: > 95.3 | IC50 [4]: > 100 µM | CC50 at 48 h [6]: > 244 µM

Cc1c(/C=N/Nc2c(Cl)cc(Cl)cc2Cl)[n+]([O-])c2cc(Cl)ccc2[n+]1[O-]
IC50 [1]: > 100 µM | IC50 [2]: 61.1 µM | selectivity ratio [3]: 0.2 | IC50 [4]: > 100 µM | selectivity ratio [5]: < 0.12 | CC50 at 48 h [6]: 12.2 µM

Cc1c(C)[n+]([O-])c2ccccc2[n+]1[O-]
IC50 [1]: > 100 µM | IC50 [2]: > 100 µM | selectivity ratio [3]: < 3.21 | IC50 [4]: > 100 µM | selectivity ratio [5]: < 3.21 | CC50 at 48 h [6]: 322 µM

C[C@@H]1[C@H](O)[C@@H](C)/C=C/C=C/C=C/C=C/C=C/C=C/C=C/[C@H](O[C@@H]2O[C@H](C)[C@@H](O)[C@H](N)[C@@H]2O)C[C@@H]2O[C@](O)(C[C@@H](O)C[C@@H](O)[C@H](O)CC[C@@H](O)C[C@@H](O)CC(=O)O[C@H]1C)C[C@H](O)[C@H]2C(=O)O [AMPHOTERICIN B]
IC50 [4]: 0.05 µM
